Literature values in patent US20210401795A1, “Compressible Cannabinoid Pharmaceutical Composition” (Imbucanna, Inc., priority 2019, published 2021).

What was measured:
[1] = pure CBD, twice-daily dosages, pediatric patients; ranging from total seizure freedom to the stated reductions
[2] = not given; remark: listed apart in the source

SMILES | duration of appetite stimulant effect (after administration) | duration of action for psychoactive effects (after oral administration) | onset of action (after oral administration) | peak effect (after oral administration) | seizure reduction [1] | solubility in water [2]
CCCCCc1cc(O)c2c(c1)OC(C)(C)[C@@H]1CCC(C)=C[C@@H]21 [Dronabinol, (−)-trans-Δ^9-tetrahydrocannabinol] | ≥ 24 h | 4 to 6 h | 0.5 to 1 h | 2 to 4 h |  | 
C=C(C)[C@@H]1CCC(C)=C[C@H]1c1c(O)cc(CCCCC)cc1O [CBD, cannabidiol] |  |  |  |  | 25-80% | poorly soluble in water
